Six molecules from patent US10174013B2, “Benzimidazole derivatives as kinase inhibitors” (SELVITA S.A., priority 2012, dated 2019) can be followed below.

Where two headings read alike, the source gives them in different places.

One data set deals with Pim-1 (Homo sapiens (Human), UniProt P11309). The experiment in a line: ADP-Glo Kinase Assay, Pim-1. The class given is biochemical. To be noted: 1 μM compound; for inhibition at 1 µM: read-out: Pim-1 % INH (1 μM). The essentials: (§1)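 Compounds were diluted in assay buffer to 1000 nM and incubated with kinase, substrate and ATP at apparent Km. Remaining ATP was depleted, ADP converted to ATP and detected by luciferase; percent inhibition came from normalized luminescence.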
Pim-1, sequence (P11309 whole entry): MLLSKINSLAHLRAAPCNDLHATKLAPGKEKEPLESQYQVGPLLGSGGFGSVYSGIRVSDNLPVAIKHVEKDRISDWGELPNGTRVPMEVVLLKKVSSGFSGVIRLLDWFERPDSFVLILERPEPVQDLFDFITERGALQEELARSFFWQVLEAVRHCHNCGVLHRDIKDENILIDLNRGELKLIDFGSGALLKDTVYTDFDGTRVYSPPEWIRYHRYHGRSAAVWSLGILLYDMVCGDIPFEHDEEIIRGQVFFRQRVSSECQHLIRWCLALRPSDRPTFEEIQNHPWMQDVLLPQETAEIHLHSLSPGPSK

Another data set addresses Pim-3 (Homo sapiens (Human), UniProt Q86V86). The experiment in a line: ADP-Glo Kinase Assay, Pim-3. The format is biochemical. Conditions: 1 μM compound; for inhibition at 1 µM: read-out: Pim-3 % INH (1 μM). An outline of the steps: as §1
(In general: ADP-Glo first removes unused ATP, then detects ADP through luciferase.)

Another data set deals with hERG potassium channel (Homo sapiens (Human), UniProt Q12809). In words: hERG automated patch clamp assay (QPatch HT). The protocol: The hERG (human ether-A-go-go-related gene) channel corresponds to an important anti-target for potential new drugs since its inhibition may lead to sudden death. In order to establish whether the compounds of the present invention act on hERG, the following experiment was carried out.
hERG potassium channel, sequence (Q12809 whole entry): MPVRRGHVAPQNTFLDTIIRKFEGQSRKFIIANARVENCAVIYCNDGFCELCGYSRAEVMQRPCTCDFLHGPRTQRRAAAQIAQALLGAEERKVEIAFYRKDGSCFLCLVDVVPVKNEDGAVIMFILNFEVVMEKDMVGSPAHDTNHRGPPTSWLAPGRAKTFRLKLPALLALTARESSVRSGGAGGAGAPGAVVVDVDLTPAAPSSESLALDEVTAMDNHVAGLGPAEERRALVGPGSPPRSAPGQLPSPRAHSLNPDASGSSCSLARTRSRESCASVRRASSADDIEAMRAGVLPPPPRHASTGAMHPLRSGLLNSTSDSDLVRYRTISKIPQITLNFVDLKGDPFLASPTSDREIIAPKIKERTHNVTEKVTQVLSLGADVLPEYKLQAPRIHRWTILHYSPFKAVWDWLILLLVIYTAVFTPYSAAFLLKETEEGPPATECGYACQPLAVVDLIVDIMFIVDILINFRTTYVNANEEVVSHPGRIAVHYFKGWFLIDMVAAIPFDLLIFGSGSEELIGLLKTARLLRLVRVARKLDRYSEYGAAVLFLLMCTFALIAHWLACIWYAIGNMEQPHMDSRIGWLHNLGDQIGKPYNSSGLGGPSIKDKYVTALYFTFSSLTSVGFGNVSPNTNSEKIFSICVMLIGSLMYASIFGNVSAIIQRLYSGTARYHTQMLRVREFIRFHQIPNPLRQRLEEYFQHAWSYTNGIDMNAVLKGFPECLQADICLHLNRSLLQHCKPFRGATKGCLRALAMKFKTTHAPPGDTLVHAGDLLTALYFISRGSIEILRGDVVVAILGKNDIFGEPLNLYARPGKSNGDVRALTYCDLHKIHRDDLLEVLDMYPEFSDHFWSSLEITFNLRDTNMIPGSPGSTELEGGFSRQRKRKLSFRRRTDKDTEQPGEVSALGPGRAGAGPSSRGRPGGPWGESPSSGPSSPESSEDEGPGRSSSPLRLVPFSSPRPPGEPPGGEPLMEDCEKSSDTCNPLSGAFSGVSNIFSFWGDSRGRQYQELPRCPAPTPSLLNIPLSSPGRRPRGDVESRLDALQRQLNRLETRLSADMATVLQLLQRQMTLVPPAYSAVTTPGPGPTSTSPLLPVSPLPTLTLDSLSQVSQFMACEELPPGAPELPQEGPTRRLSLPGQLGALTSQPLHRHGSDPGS
The in vitro effects of the compounds indicated in Table 5 on the hERG potassium channel current (a surrogate for Iκr, the rapidly activating, delayed rectifier cardiac potassium current) expressed in mammalian cells were evaluated at room temperature using the QPatch HT® (Sophion Bioscience A/S, Denmark), an automatic parallel patch clamp system. Each compound indicated in Table 5 was evaluated at 0.1, 1, 3, 10 and 30 μM with each concentration tested in a minimum of two cells (n≥2). The duration of exposure to each compound concentration was 3 minutes.
Background: Block of hERG is tested as a sign of cardiac risk.

The target in another data set is CDK2/E (Homo sapiens (Human), UniProt P24941). The experiment in a line: ADP-Glo Kinase Assay, CDK2/E. The class given is biochemical. Conditions: 1 μM compound; for inhibition at 1 µM: read-out: CDK2/E % INH (1 μM). The essentials:
as §1

Another data set concerns the target FLT3wt (Homo sapiens (Human), UniProt P36888). In words: ADP-Glo Kinase Assay, Flt3 wt. The format is biochemical. To be noted: 1 μM compound; for inhibition at 1 µM: read-out: Flt3wt % INH (1 μM). The essentials:
as §1

A further data set has as its target Pim-2 (Homo sapiens (Human), UniProt Q9P1W9). In words: ADP-Glo Kinase Assay, Pim-2. To be noted: 1 μM compound; for inhibition at 1 µM: read-out: Pim-2 % INH (1 μM). The class given is biochemical. An outline of the steps: as §1
The test system of the next data set is HepG2 cells. The experiment in a line: Growth inhibition, MTS assay, HepG2. The class given is cell-based, Human. Conditions: MTS cell viability, read-out: HepG2 ED50. For orientation: Formazan colour is commonly taken as a measure of viable cells.
In another data set the target is DYRK1 (Homo sapiens (Human), UniProt Q13627). In words: ADP-Glo Kinase Assay, DYRK1. The class given is biochemical. Conditions: 1 μM compound; for inhibition at 1 µM: read-out: DYRK1A % INH (1 μM). The essentials:
as §1

The subject of another data set is MV4-11 cells. In words: Growth inhibition, MTS assay, MV4-11. The format is cell-based, Human. Conditions: MTS cell viability, read-out: MV4-11 ED50.
In another data set the test system is HEL92 cells. The experiment in a line: Growth inhibition, MTS assay, HEL92. Conditions: MTS cell viability, read-out: HEL92 ED50. The format is cell-based, Human.
A further data set relates to SW-480 cells. The experiment in a line: Growth inhibition, MTS assay, SW-480. The class given is cell-based, Human. To be noted: 72 hours, MTS cell viability, read-out: SW-480 ED50. The source says:
(§2) The following cell lines, were obtained and used in tests as outlined below: • Human myelomonocytic, biphenotypic leukemia MV4-11 cells (harboring a Flt3-ITD mutation); • Human Acute Myeloid Leukemia MOLM16 cells; • Human Acute Myeloid Leukemia MOLM13 cells (harboring a Flt3-ITD mutation); • Human Myeloid Leukemia KG-1 cells; • Human erythroleukemia HEL92 cells; • Human mantle cell lymphoma Jeko-1 cells; • Human hepatocellular carcinoma HepG2 cells; and • Human colon adenocarcinoma SW-480 cells.
(§3) The assays were carried out according to the following protocol, which is described as an example for the MV4-11 cells:
(§4) Ten thousand MV4-11 cells were inoculated into each well of a 96-well microplate (manufactured by Corning Corp.) using Iscove's MDM medium (culture medium) containing 10% fetal calf serum (FCS). The same day, a dimethyl sulfoxide (DMSO) solution of each test compound prepared in a concentration of 10 mmol/L was further diluted with DMSO to the desired concentrations (0.1, 0.5, 1, 2.5, 5 and 10 micromol/L), and the diluted solution was added to each well. The individual wells were further cultured in 5% carbon dioxide at 37° C. for 72 hours. […] Briefly, 10 μl MTS (3-(4,5-Dimethyl-2-thiazolyl)-5-(carboxymethoxyphenyl)-2-(4-sulfophenyl)-2H-tetrazolium was added to each well, and culturing was performed in 5% carbon dioxide at 37° C. for 2 hours. After this incubation and using a microplate spectrophotometer (Synergy 2 multi-mode microplate reader (BioTek)), the absorbance of each well was measured at 490 nm. The value for cells not incubated with a test compound was designated as 100%. By comparing these values with the absorbance difference obtained at the well in which each test compound was added, the cell viability (% viability) after treatment with the test compound was calculated.

The subject of a further data set is Jeko-1 cells. In words: Growth inhibition, MTS assay, Jeko-1. The class given is cell-based, Human. Conditions: Homo sapiens, JeKo-1; 72 hours, MTS cell viability; read-out: Jeko-1 ED50.
Text: as §2, §3, §4

Pim-2, sequence (Q9P1W9 whole entry): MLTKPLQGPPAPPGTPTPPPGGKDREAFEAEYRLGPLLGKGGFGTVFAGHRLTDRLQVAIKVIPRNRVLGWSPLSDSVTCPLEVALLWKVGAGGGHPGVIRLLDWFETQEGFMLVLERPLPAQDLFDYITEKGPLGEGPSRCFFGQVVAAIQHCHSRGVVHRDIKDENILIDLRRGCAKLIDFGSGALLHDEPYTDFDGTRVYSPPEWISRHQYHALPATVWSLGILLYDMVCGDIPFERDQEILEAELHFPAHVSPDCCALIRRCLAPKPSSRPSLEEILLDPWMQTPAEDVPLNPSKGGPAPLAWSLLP
FLT3wt, sequence (P36888 27-993): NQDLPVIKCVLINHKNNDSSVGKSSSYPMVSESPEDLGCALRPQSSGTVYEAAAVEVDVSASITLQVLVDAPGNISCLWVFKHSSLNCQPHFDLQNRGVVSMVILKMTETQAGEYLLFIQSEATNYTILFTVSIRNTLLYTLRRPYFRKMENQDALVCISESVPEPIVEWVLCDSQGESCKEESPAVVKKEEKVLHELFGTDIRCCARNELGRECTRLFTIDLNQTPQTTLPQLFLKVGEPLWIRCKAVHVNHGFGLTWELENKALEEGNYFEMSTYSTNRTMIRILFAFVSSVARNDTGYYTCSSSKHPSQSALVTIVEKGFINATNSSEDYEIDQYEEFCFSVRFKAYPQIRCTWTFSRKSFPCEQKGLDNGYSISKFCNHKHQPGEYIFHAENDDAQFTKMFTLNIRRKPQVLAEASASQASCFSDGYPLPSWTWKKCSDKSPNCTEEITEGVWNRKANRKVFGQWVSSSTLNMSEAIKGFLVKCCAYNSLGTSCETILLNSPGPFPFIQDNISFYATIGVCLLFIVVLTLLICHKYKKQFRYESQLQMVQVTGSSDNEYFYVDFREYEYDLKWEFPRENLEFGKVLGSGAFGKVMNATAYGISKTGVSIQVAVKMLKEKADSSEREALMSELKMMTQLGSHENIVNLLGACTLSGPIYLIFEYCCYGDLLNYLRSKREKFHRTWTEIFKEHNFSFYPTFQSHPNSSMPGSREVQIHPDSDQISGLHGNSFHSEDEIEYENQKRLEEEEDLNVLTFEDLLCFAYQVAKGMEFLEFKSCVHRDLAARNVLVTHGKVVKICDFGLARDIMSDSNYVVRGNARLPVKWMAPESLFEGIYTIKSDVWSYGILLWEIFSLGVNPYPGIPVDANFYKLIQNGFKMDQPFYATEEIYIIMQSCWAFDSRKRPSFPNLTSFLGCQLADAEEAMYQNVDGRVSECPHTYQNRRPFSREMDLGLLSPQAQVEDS

On to `CCn1c(N2CCNC(=O)C2)nc2c([N+](=O)[O-])c(Br)c(Br)cc21` [Example 22A, 4-(5,6-dibromo-1-ethyl-4-nitro-1H-1,3-benzodiazol-2-yl)piperazin-2-one], for which the inhibition at 1 µM on Pim-1 was 65%; on Pim-3, 28%; on CDK2/E, less than 5%; on FLT3wt it was 8%. The IC50 at hERG potassium channel (read-out: hERG IC50, automated patch clamp, room temperature, 0.1-30 μM, 3 minutes exposure) turned out to be 10100 nM.

Regarding `CC(C)n1c(N2CCOC(CN)C2)nc2c([N+](=O)[O-])c(Br)c(Br)cc21` (stereo not shown) [Example 1AQ], the inhibition at 1 µM at Pim-1 is more than 95%; at Pim-2 it was 40%; at Pim-3 it was 83%; on DYRK1, 22%; at CDK2/E, less than 5%; on FLT3wt, less than 5%. Moreover, the IC50 in the data set on HepG2 cells (Homo sapiens, HepG2, 72 h) came out at 4900 nM; in the data set with MV4-11 cells (Homo sapiens, MV4-11, 72 h), 2500 nM; against hERG potassium channel (human, 3 min), 1860 nM; with HEL92 cells (Homo sapiens, 72 h), 9600 nM.

With `CCn1c(NC2CCCCC2N)nc2c([N+](=O)[O-])c(Br)c(Br)cc21` (stereo not shown) [Example 22L, 1-N-(5,6-dibromo-1-ethyl-4-nitro-1H-1,3-benzodiazol-2-yl)cyclohexane-1,2-diamine], the IC50 in the data set with SW-480 cells (Homo sapiens, SW480) was 1200 nM; in the data set with HepG2 cells (Homo sapiens, HepG2, 72 h) it was 1300 nM; in the data set with MV4-11 cells (Homo sapiens, MV4-11, 72 h), 1900 nM; against hERG potassium channel, 850 nM; with HEL92 cells (Homo sapiens, 72 h), 3200 nM. Further, the inhibition at 1 µM is 80% at Pim-1; more than 95% on Pim-3; 17% at DYRK1; less than 5% at CDK2/E; less than 5% at FLT3wt.

Regarding `CCn1c(N2CCN(CCCN3CCNCC3)CC2)nc2c([N+](=O)[O-])c(Br)c(Br)cc21` [Example 22R, 5,6-dibromo-1-ethyl-4-nitro-2-{4{3-(piperazin-1-yl)propyl]piperazin-1-yl}-1H-1,3-benzodiazole], the IC50 came to 500 nM in the data set with SW-480 cells (Homo sapiens, SW480); 1200 nM in the data set with HepG2 cells (Homo sapiens, HepG2, 72 h); 1100 nM in the data set on MV4-11 cells (Homo sapiens, MV4-11, 72 h); 1780 nM against hERG potassium channel; 2900 nM with HEL92 cells (Homo sapiens, 72 h).

In the case of `CC(C)n1c(N2CCCC(N)C2)nc2c([N+](=O)[O-])c(Br)c(Br)cc21` (stereo not shown) [Example 1T], the IC50 in the data set with SW-480 cells (Homo sapiens, SW480) was 3200 nM; in the data set on HepG2 cells (Homo sapiens, HepG2, 72 h), 1300 nM; in the data set on Jeko-1 cells it was 1700 nM; in the data set on MV4-11 cells (Homo sapiens, MV4-11, 72 h), 600 nM; in the data set on HEL92 cells (Homo sapiens, 72 h) it was 5100 nM. The inhibition at 1 µM was more than 95% at Pim-1; 81% at Pim-2; more than 95% at Pim-3; 27% on DYRK1; 7% on CDK2/E; 21% at FLT3wt.

Turning to `CCCn1c(NCCCN)nc2c([N+](=O)[O-])c(Br)c(Br)cc21` [Example 1P], the IC50 was 2900 nM in the data set on SW-480 cells; 1500 nM in the data set with HepG2 cells (72 hours); 1400 nM in the data set with MV4-11 cells (72 hours); 1880 nM against hERG potassium channel; 7000 nM with HEL92 cells (72 hours). At Pim-1, the “Pim-1 % INH (1 μM)” value was more than 95%. For the same molecule, at Pim-2, the “Pim-2 % INH (1 μM)” value is reported as 36%. The “Pim-3 % INH (1 μM)” value on Pim-3 came out at 77%. In addition, the “DYRK1A % INH (1 μM)” value on DYRK1 was 23%. Moreover, the “CDK2/E % INH (1 μM)” value at CDK2/E is listed as less than 5%. Besides, the “Flt3wt % INH (1 μM)” value at FLT3wt was determined as 37%.
